Broadly, the IC50 is the concentration needed to halve the response being measured. The term inhibition denotes the percentage by which the read-out fell short of the control.

The subject of experiment [1] is HIV-1 activation in OM-10.1 cells. As to conditions: poster NCDDG/AIDS, San Diego, 1991; some 48 compounds evaluated; cited from earlier work.
Experiment [2] shares this test system. The experiment is described as follows: Inhibition of activation of latent HIV-1 in chronically infected OM-10.1 cells. In kind it is cell-based. As to conditions: Human immunodeficiency virus 1. The text has this:
The cellular pathways involved in mediating the activating signal from the plasma membrane to the integrated virus, resulting in HIV-1 expression, are much less clear. Recently, the development of a reliable and simple system for evaluating compounds that could prevent activation of latent HIV was reported at the National […] (NCDDG)/AIDS by P. Feorino, S. T. Butera, T. M. Folks, and R. F. Schinazi, San Diego, Calif., Nov. 3-7, 1991. The assay system employed the OM-10.1 cell line, a unique chronically-infected promyelocytic clone which remains CD4+ until HIV-1 activation with tumor necrosis factor-α. The expression of CD4+ on the cell surface and the activity of reverse transcriptase are used as markers for quantitating viral expression. Alternatively, other HIV markers, such as protease activity, which are known to those of skill in the art can be used. OM-10.1 cells remain CD4^+ until viral activation and respond to tumor necrosis factor induction, and therefore, these cultures are used to conveniently and rapidly examine pharmacologics for an ability to prevent CD4^+ down modulation (decrease in expression of CD4^+ on the cell surface) and HIV-1 expression.
A variety of compounds known to have antiviral properties against either acutely or chronically infected cells were evaluated for their ability to inhibit HIV expression in these OM-10.1 cells. […]

Experiment [3] relates to human neutrophil adhesion to TNF-α-stimulated human umbilical vein endothelial cells (HUVEC). The experiment is described as follows: Modified method: inhibition of human neutrophil adhesion to TNF-α-stimulated human umbilical vein endothelial cells (calcein-labeled neutrophils). The settings on record: footnote a, neutrophil label not given, IC50 by linear regression from 33.3, 10.0, 3.3 and 1.0 μM, read-out: Adhesion ECA, IC50. Format: cell-based. Here is the method: (§1) The 3-thiol, thioether, amino, alkylamino, or arylamino-benzo[b]thiophene-2-carboxamides and 3-alkoxy, aryloxy, thiol, thioether, amino, alkylamino, or arylamino-benzofuran-2-carboxamides have been shown in an in vitro assay to prevent the adhesion of neutrophils to human umbilical vein endothelial cells (HUVECS) stimulated with TNF-α. In this assay, HUVECS are stimulated with TNF-α for 4 hours, after which the cells are assayed for their ability to adhere to human neutrophils labeled with either ^51 Cr or calcein, a fluorescent dye. The details of this assay are described in the DETAILED DESCRIPTION.
(§2) Neutrophils were isolated from anticoagulant-treated venous blood obtained from healthy human volunteers according to the method of Ferrante and Thong [J. Immunol. Methods 24, 389-93 (1978)]. The cell preparations consisted of greater than 98% neutrophils.
Modified Method for Determining the Inhibition of Human Neutrophil Adhesion to TNF-α, IL-1α, and LPS Stimulated Human Umbilical Vein Endothelial Cells
The previous assay using ^51 Cr labeled human neutrophils has been modified. The neutrophils are now labeled with the fluorescent dye calcein. The current method allows for quantification of neutrophil adherence by fluorescence spectroscopy.
Second passage HUVEC (Clonetics Corporation, San Diego, Calif., CC-2617) were seeded into Coring (Corning glass works, Corning, N.Y.) 96-well cell culture plates at approximately 5×10^3 cells/well and grown to confluency in supplemented endothelial basal medium (EBM, MCDB-131, Clonetics, 10 ng/mL EGF, 1 μg/mL hydrocortisone, 0.4% bovine brain extract, 5% Fetal Bovine Serum). One day prior to running the assay, typically 3 days postseeding, the cultures were refed with 0.2 mL/well supplemented EBM (S-EBM).
Test compounds were prepared as 10 mL stock solutions at a concentration of 1.0 mM. The compounds were initially solubilized in 0.1 mL DMSO followed by the addition of 9.9 mL S-EBM. The drug preparations were then diluted in one step to a concentration of 66.6 μM or 200 μM. Solubilizations and dilutions were performed in polystyrene containers.
Recombinant human tumor necrosis factor-α (TNF, Genzyme, Boston, Mass., code TNF-H) was prepared at 400 U/mL in S-EBM. Stock TNF was prepared to 20,000 U/mL in Delbecco's phosphate-buffered saline (PBS, Gibco, Grand Island N.Y.) plus 0.1% BSA and stored at -70° C. HUVEC were washed one time with 0.2 mL warm unsupplemented EBM and then stimulated for 4hours at 37° C. with 200 U/mL TNF in the presence of 33.3 μM or 100 μM test compound. This was accomplished by adding 0.1 mL of 400 U/mL TNF and 0.1 mL 66.6 μM or 0.1 mL of 200 μM test compound. These additions were done slowly as to not disrupt the HUVEC monolayer. Each compound was tested in six wells. Unstimulated (vehicle control) and TNF-stimulated without test compound treatments were also run in each plate.
One hour prior to adding the neutrophils (isolated as previously described) to the HUVEC, neutrophils (5×10^6 /mL) were labeled for 30 minutes at 37° C. with 5 μM calcine-AM (Molecular Probes, Eugene, Oreg.) in Hanks' balanced salt solution plus 0.45% BSA. Stock calcein was prepared to 5mM in anhydrous DMSO and stored desiccated at -20° C. At the end of the incubation the cells were washed two times in cold HBSS and resuspended to a final concentration of 1×10^6 cells/mL in unsupplemented EBM.
At the end of the 4-hour stimulation and immediately prior to the addition of the neutrophils to the HUVEC monolayer, the plates were washed with 0.2 ml warm unsupplemented EBM to remove TNF and drug. Neutrophils (1×10^5 cells) were slowly added to each of the treated wells and incubated for 30 minutes at 37° C. At the end of the incubation the plates were washed two times with 0.2 mL warm unsupplemented EBM followed by a final addition of 0.1 mL for plate scanning.
The fluorescence was determined using a Millipore Cytofluor 2300 system (excitation=480, emission=530, sensitivity=4). […]

Experiment [4] has the same test system. Kind of experiment: Inhibition of human neutrophil adhesion to TNF-α-stimulated human umbilical vein endothelial cells (51Cr-labeled neutrophils). In kind it is cell-based. The settings on record: neutrophils labeled with Cr, read-out: Adhesion ECA, % inhibition. Here is the method: as §1
Method for Determining the Inhibition of Human Neutrophil Adhesion to TNF-α, IL-1α, and LPS-Stimulated Human Umbilical Vein Endothelial Cells
as §2
Second passage human umbilical vein endothelial cells (HUVEC) (Clonetics, San Diego, Calif.) were seeded into Falcon 24-well cell culture plates (Becton Dickinson, Lincoln Park, N.J.) at approximately 2×10^4 cells per well. The cells were grown to confluent monolayers in endothelial basal medium (EBM, Clonetics) supplemented with 5% fetal calf serum (Hyclone Laboratories, Logan, Utah), 10 ng/mL EGF, 1 μg/mL hydrocortisone, 0.4% bovine brain extract (Clonetics) in 5% CO2 at 37° C.
Neutrophils (30×10^6) were labeled for 60 minutes at 37° C. with 100 μCi Na^51 CrO4 (ICN Biomedicals, Costa Mesa, Calif.) in 2.0 mL Ca^2+ - and Mg^2+ -free Hanks' balanced salt solution (HBSS, GIBCO Laboratories, Grand Island, N.Y.). […]
Stimulation of HUVEC with tumor necrosis factor-α (TNF-α) (Genzyme, Cambridge, Mass.), interleukin (IL-1α) (Genzyme) or E. coli 0111: B4 lipopolysaccharide (LPS) (Sigma) in the presence or absence of drug was initiated 4 hours prior to the addition of neutrophils. […] Lysates were collected and the radioactivity in each well was determined by gamma ray spectroscopy.

In the case of `Cc1cn([C@H]2C[C@H](F)[C@@H](CO)O2)c(=O)[nH]c1=O` [3'-fluoro-3'-deoxythymidine (FLT), 3'-fluoro-3'-deoxythymidine], the “inhibition of activation of HIV-1 in OM-10.1 cells” value (“inhibition … in OM-10.1 cells” for short) in experiment [1] was “modest inhibitors of the activation of HIV-1”.
`COc1ccc2sc(C(N)=O)c(SC(C)C)c2c1` [Example 1, 5-Methoxy-3-[(1-methylethyl)thio]benzo[b]thiophene-2-carboxamide]: the half-maximal inhibitory concentration (IC50) is 0.4 µM in experiment [2] and 11.7 µM in experiment [3].
Take `CC(C)Sc1c(C(N)=O)sc2ccccc12` [Example 2, 3-[(1-Methylethyl)thio]benzo[b]thiophene-2-carboxamide]: the inhibition at 100 µM in experiment [4] was found to be 34%.
Take `COc1ccc2sc(C(N)=O)c(SC)c2c1` [Example 4, 5-Methoxy-3-(methylthio)benzo[b]thiophene-2-carboxamide]: the inhibition at 100 µM in experiment [4] stood at 81%.
Same read-out and setting: the same measure for `COc1ccc2sc(C(N)=O)c(Sc3ccccc3)c2c1` [Example 5, 5-Methoxy-3-(phenylthio)benzo[b]thiophene-2-carboxamide]: 48%.
`CC(=O)N(O)CCCCCNC(=O)CCC(=O)N(O)CCCCCNC(=O)CCC(=O)N(O)CCCCCN` [desferrioxamine]: the “inhibition … in OM-10.1 cells” value in experiment [1] is recorded as “modest inhibitors of the activation of HIV-1”.
As for “interferon Y: interferon Y, considered modest inhibitor of the activation of HIV-1 (probably interferon gamma)”, the “inhibition … in OM-10.1 cells” value in experiment [1] is “modest inhibitors of the activation of HIV-1”.

These data come from patent publication US5350748A, “3-thio or amino substituted-benzo[b]thiophene-2-carboxamides and 3-oxygen, thio, or amino substituted-benzofuran-2-carboxamides as inhibitors of cell adhesion” (Warner-Lambert Company, priority 1993, dated 1994).
